Read-outs that look alike come from different tables or passages of the source.

One assay deals with T1, hMAO-A (Homo sapiens, UniProt P21397).
T1 construct: purchased Sigma Aldrich; host or cells: BTI-TN-5B1-4 baculovirus-infected insect cells
T1 sequence (P21397 1-527): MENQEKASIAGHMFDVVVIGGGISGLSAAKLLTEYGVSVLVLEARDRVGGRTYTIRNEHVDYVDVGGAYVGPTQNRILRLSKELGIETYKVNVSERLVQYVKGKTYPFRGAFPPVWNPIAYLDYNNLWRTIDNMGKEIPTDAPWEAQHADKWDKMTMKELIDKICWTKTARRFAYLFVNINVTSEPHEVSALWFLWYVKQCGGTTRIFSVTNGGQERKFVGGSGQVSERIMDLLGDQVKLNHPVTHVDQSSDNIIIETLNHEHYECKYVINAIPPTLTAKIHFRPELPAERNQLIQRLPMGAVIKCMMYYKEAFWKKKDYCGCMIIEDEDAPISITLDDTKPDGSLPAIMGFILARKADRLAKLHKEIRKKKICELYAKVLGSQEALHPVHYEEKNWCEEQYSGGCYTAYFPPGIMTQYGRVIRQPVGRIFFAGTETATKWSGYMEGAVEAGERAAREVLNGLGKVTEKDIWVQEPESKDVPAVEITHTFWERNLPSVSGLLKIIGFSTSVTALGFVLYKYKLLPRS
Kind of assay: Inhibition of hMAO-A, fluorimetric Amplex Red assay. The following applies: residual activity at 10 µM. Format: biochemical. The method, then: The effects of the compounds on hMAO-A and hMAO-B were investigated using a fluorimetric assay, following a method previously described in the literature. Recombinant human microsomal hMAO enzymes expressed in BTI-TN-5B1-4 baculovirus-infected insect cells, horseradish peroxidase (HRP, type II, lyophilized powder), and p-tyramine hydrochloride were purchased from Sigma Aldrich. 10-Acetyl-3,7-dihydroxyphenoxazine (Amplex Red reagent) was synthesized as described in the literature.
Briefly, 100 µL of 50 mM sodium phosphate buffer (pH 7.4, 0.05% (v/v) Triton X-114), containing the compounds and hMAO-A or hMAO-B, was incubated for 15 min at 37 °C in a flat-bottomed black 96-well microplate protected from ambient light. After preincubation, the reaction was started by adding final concentrations of 200 µM Amplex Red reagent, 2 U/mL HRP, and 1 mM p-tyramine hydrochloride. Resorufin production was quantified based on the fluorescence produced (λex = 530 nm; λem = 590 nm) at 37 °C over a 20 min period. For the control experiments, DMSO was used instead of appropriate dilutions of the compounds in DMSO. For the determination of blank (b), the enzyme solution was replaced by a phosphate-buffered solution. Initial velocities were calculated from the obtained trend, with each measurement performed in duplicate. Specific fluorescence emission to determine the final results was calculated after subtracting the blank activity (b). Inhibitory potencies were expressed as RAs, and IC50 values were calculated as described in the section “Inhibition of hBChE and mAChE” above.

For another assay, the target named is MurA (Escherichia coli, UniProt P0A749). Kind of assay: Inhibition of MurA, colorimetric malachite green method. To be noted: for remaining activity at 50 µM: 0.25 h, read-out: MurA (RA [%]); for RA (MurA, 50 µM): residual activity at 50 µM, Figure 1; for MurA RA (%): residual activity at 100 µM, Table 1. Format: biochemical, bacterial. As for the experimental part: Inhibition of Mur enzymes was monitored with the colorimetric malachite green method, which measured orthophosphate formed during reaction. The mixtures with a final volume of 50 µL contained:
MurA: 50 mM HEPES-NaOH, pH 7.8, 0.005% Triton X-114, 200 µM uridine-diphosphate-N-acetylglucosamine, 100 µM phosphoenolpyruvate, purified MurA, and 50 or 100 µM of each compound tested.
All compounds were soluble in the assay mixtures containing 5% DMSO (v/v). After incubation for 15 min (20 min for DdlB) at 37 °C, the enzyme reaction was terminated by addition of Biomol® reagent (100 µL) and absorbance was measured after 5 min at 650 nm (Synergy™ H4 microplate reader; BioTek Instruments, Inc., BioTek Gen5 Data Analysis Software, version 2.9, Santa Clara, CA, USA). All experiments were performed in duplicate.

The mark [1] stands for this setting: Mini Library screen, Table S1, read-out: hMAO-A (RA [%]).
Where [2] appears, read: Table 3, read-out: hMAO-A RA (%).

Sequence of MurA (P0A749 whole entry): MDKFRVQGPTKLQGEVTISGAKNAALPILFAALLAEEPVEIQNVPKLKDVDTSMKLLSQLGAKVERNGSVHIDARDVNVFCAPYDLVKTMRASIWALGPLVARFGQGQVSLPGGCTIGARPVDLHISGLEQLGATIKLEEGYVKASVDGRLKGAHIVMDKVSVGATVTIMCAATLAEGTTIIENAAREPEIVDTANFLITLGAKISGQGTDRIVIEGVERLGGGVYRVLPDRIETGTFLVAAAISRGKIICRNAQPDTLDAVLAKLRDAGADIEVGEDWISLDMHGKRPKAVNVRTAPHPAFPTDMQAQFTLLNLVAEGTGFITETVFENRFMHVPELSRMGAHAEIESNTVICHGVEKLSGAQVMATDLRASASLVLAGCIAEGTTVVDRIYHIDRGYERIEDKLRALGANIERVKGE

As to `CCCCc1nc2ccn(Cc3ccccc3)c(=O)c2n1Cc1ccc(-c2ccccc2-c2nnn[nH]2)cc1` [MS-ML03], the remaining activity at 10 µM at hMAO-A (setting [1]) worked out at 83%. The remaining activity at 50 µM on MurA is 100%.
Take `CCCCc1nc2ccn(CC(=O)N3CCCCC3)c(=O)c2n1Cc1ccc(-c2ccccc2S(=O)(=O)NC(=O)OCc2ccccc2)cc1F` [MS-ML05]: the remaining activity at 10 µM on hMAO-A (setting [1]) came to 79%. Also, the remaining activity at 50 µM on MurA came out at 90%.
On to `C1=C(c2ccccc2)CCN(CCCCc2c[nH]c3ccccc23)C1` [MS-ML10], for which, on hMAO-A (setting [1]), the remaining activity at 10 µM stood at 75%. In addition, at MurA, the remaining activity at 50 µM amounted to 110%.
The matching figures for `Oc1ccc2[nH]cc(CCCCN3CC=C(c4ccccc4)CC3)c2c1` [MS-ML11]: 31% and 100%.
For `CCCCCCN(Cc1ccc(C#Cc2ccc(CCCC)cc2)cc1)c1ccc(O)c(C(=O)O)c1` [MS-ML24], the remaining activity at 10 µM on hMAO-A (setting [1]) came to 57%. For the same molecule, at MurA, the IC50 stood at 7 ± 3 µM; the remaining activity at 50 µM came out at 15%; the “RA (MurA, 50 µM)” value is reported as 15%; the “MurA RA (%)” value turned out to be 0%.
Consider `CCCCCCN(Cc1ccc(C#Cc2ccc(CCCC)cc2)cc1)C(=O)c1ccc(O)c(C(=O)O)c1` [MS-ML25], for which, on hMAO-A (setting [1]), the remaining activity at 10 µM was 73%. Moreover, on MurA, the IC50 worked out at 6 ± 2 µM; the remaining activity at 50 µM amounted to 0%; the “RA (MurA, 50 µM)” value amounted to 0%; the “MurA RA (%)” value is on record as 0%.
On to `CCCCCCN(Cc1ccc(C#Cc2ccc(CCCC)cc2)cc1)c1ccc(F)c(C(=O)O)c1` [MS-ML26], for which, on hMAO-A (setting [1]), the remaining activity at 10 µM worked out at 60%. Further, on MurA, the IC50 worked out at 7 ± 4 µM; the remaining activity at 50 µM amounted to 7%; the “RA (MurA, 50 µM)” value stood at 7%; the “MurA RA (%)” value was 0%.
Take `O=C(OC[C@H]1CCCN1c1ccnc2ncnn12)c1ccc(Oc2ccccc2)nc1` [MS-ML31]: the remaining activity at 10 µM amounted to 78% at hMAO-A (setting [1]) and 98% at hMAO-A (setting [2]). The “hMAO-A RA [%]” value on hMAO-A (Table S3) is on record as 98%. Further, the remaining activity at 50 µM on MurA is 94%.
For `O=C(Nc1ccc(Oc2ccncc2)cc1)Nc1cc(C(F)(F)F)ccc1-n1cncn1` [MS-ML80], the figures for the remaining activity at 10 µM at hMAO-A (setting [1]) and at hMAO-A (setting [2]) were 82% and 78%, respectively. For the same molecule, at MurA, the remaining activity at 50 µM is 93%.

(Values after publication PMC9320114 (Molecules, 2022).)
